# From the supplement of paper PMC8372320
# Experiment: photocatalytic hydrogen evolution rate (per 5 mg catalyst); higher = more photocatalytic H2 evolution; extreme values may be limits of the assay
# Conditions: catalyst mass (mg): 5; Pt cocatalyst (wt%): 3; sacrificial medium: triethylamine/methanol/water 1:1:1
# 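Further: aromatic molecules in triethylamine/methanol/water with Pt photoreduced in situ, irradiated 3 h under a 1 sun AM 1.5G solar simulator (350–1000 nm), H2 quantified by headspace gas chromatography; listed molecule itself used as the photocatalyst at 5 mg per vial.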
row,photocatalytic hydrogen evolution rate [µmol/h],SMILES
1,1.66,O=Cc1ccc(C#Cc2ccccc2)cc1
2,0,c1ccc(-c2nc3ccccc3[nH]2)cc1
3,0.00201,N#Cc1c(F)c(F)nc(F)c1F
4,3.93,O=Cc1ccc(-n2c3ccccc3c3ccccc32)cc1
5,0,C#Cc1ccc(Br)cc1
6,0,N#Cc1cccc(Br)n1
7,0,c1ccc2c(c1)ccc1c3ccccc3ccc21
8,0,Brc1cnc(Br)s1
9,0,N#Cc1cc(N)cc(F)c1
10,0.17,c1ccc(-c2cccc(-c3ccccn3)n2)nc1
11,0,c1cc(-c2ccncc2)ccn1
12,0.441,O=C(O)c1ccc(-c2cc(-c3ccccn3)nc(-c3ccccn3)c2)cc1
13,2.34,O=Cc1ccc(C(=O)O)cc1
14,0,O=Cc1ccc2nccnc2c1
15,0.831,O=Cc1cc(Br)cc(C=O)c1
16,0.201,O=C(O)c1ccc(-c2nc(-c3ccc(C(=O)O)cc3)nc(-c3ccc(C(=O)O)cc3)n2)cc1
17,0,S=C=Nc1cc(Br)ccc1Br
18,0.0572,Brc1ccc2c3ccc(Br)cc3n(-c3ccccc3)c2c1
19,0,O=C1C=C(O)C(=O)C=C1O
20,5.1,O=Cc1ccc(-c2ccccn2)cc1
21,0,O=C1C(O)=C(O)C(=O)C(O)=C1O

row,photocatalytic hydrogen evolution rate [µmol/h],SMILES
1,0,O=C(O)c1ccc(-c2ccccc2)cc1
2,0,Brc1ccc2c(c1)C1(c3ccccc3-c3ccccc31)c1cc(Br)ccc1-2
3,0.0124,CC1(C)OB(c2cc(B3OC(C)(C)C(C)(C)O3)cc(B3OC(C)(C)C(C)(C)O3)c2)OC1(C)C
4,0,N#Cc1cc(Br)ccc1Br
5,0,N#Cc1cc(N)ccn1
6,0,Brc1ccc(C#CC#Cc2ccc(Br)cc2)cc1
7,0,N#Cc1ccc(C=O)cn1
8,0,O=Cc1ccc2nsnc2c1
9,0,c1cc2ccc3ccc4ccc5ccc6ccc1c1c2c3c4c5c61
10,0,Brc1ccc2c3ccc(Br)cc3c3ccccc3c2c1
11,0.0112,COC(=O)c1ccc(C(=O)OC)c(N)c1
12,0,N#CC(C#N)=c1ccc(=C(C#N)C#N)cc1
13,3.39,Cc1ccc(-c2ccc(C=O)cc2)cc1
14,0,N#Cc1ccc(-c2ccc(N)cc2)cc1
15,0,Nc1cccc2c(N)cccc12
16,0,Nc1ccc(-c2nnc(-c3ccc(N)cc3)nn2)cc1
17,0,Nc1c(Br)cnc(Cl)c1Br
18,0,OC1c2ccccc2-c2ccccc21
19,1.25,c1cc2cccc3c4cccc5cccc(c(c1)c23)c54
20,0,CC(=O)c1ccc([N+](=O)[O-])cc1

row,SMILES,photocatalytic hydrogen evolution rate [µmol/h]
1,Brc1c(Br)c(Br)c(Br)c(Br)c1Br,0
2,Nc1ccccc1-c1ccccc1,0
3,N#Cc1ccc(O)cc1,0
4,Nc1ccncc1,0
